Results reported in patent publication US20200369716A1, “SOLID-PHASE SYNTHESIS OF PROTEIN-POLYMER CONJUGATES ON IMMOBILIZATION SUPPORTS” (Carnegie Mellon University, priority 2017, published 2020).

How the values were obtained:
[1] = molecular target: T1, acetylcholinesterase (AChE) from Electrophorus electricus (electric eel, type VI-S), AChE-pCBMA conjugate by PARIS (Electrophorus electricus, UniProt O42275); test: Michaelis-Menten kinetics of AChE-catalyzed hydrolysis of acetylthiocholine iodide, PARIS conjugate; assay type: biochemical; details: pH 7.4, 37° C.
T1 construct: purchased Sigma Aldrich (St Louis, Mo.); host or cells: Electrophorus electricus (electric eel)
T1 sequence (O42275 24-633): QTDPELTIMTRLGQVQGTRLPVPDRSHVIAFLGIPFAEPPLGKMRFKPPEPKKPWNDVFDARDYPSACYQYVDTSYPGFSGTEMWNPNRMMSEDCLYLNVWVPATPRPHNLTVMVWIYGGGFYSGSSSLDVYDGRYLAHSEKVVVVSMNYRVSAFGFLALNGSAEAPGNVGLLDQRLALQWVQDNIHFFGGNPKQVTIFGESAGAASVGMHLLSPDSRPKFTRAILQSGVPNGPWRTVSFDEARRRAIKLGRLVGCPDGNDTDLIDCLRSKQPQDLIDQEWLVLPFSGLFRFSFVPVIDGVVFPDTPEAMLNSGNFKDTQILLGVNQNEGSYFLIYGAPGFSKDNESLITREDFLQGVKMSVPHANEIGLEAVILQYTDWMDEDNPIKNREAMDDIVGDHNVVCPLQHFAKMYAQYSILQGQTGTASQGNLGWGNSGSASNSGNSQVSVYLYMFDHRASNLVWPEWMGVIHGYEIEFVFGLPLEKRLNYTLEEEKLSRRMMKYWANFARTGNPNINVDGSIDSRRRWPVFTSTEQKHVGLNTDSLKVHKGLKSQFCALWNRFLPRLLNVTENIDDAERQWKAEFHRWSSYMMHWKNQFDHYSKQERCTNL
Procedure: (§1) α-Chymotrypsin (CT) from bovine pancreas (type II), lysozyme from chicken egg white, acetylcholinesterase from Electrophorus electricus (electric eel, type VI-S), uricase from porcine liver (type V), and agarase from Pseudomonas atlantica were purchased from Sigma Aldrich (St Louis, Mo.). Avidin from Gallus gallus egg white was purchased from Lee Biosolutions (Maryland Heights, Mo.). Protein surface active ATRP initiator (NHS-ATRP initiator) was prepared as described elsewhere (Murata et al., supra).
Acetylthiocholine iodide (0-100 μL of 10 mM in 100 mM sodium phosphate buffer (pH 7.4)) and 10 μL of DTNB solution (50 mM in DMSO) were mixed with 100 mM sodium phosphate buffer (980-880 μL, pH 7.4). Conjugate solution (10 μL, 5.5 μM of AChE) was added to the substrate solution. The initial substrate hydrolysis rate was monitored by recording the increase in absorbance at 412 nm using a UV-VIS absorbance spectrometer with a temperature-controlled cell holder at 37° C. Michaelis-Menten parameters were determined by nonlinear curve fitting of initial rate versus substrate concentration plots using Enzfitter software.

[2] = molecular target: T2, Avidin from Gallus gallus egg white, Avi-pCBMA conjugate by PARIS (Gallus gallus, UniProt P02701); test: Binding affinity of HABA to Avi-pCBMA conjugate, PARIS; details: 300 μM HABA
T2 construct: purchased Lee Biosolutions (Maryland Heights, Mo.); host or cells: Gallus gallus egg white
T2 sequence (P02701 25-152): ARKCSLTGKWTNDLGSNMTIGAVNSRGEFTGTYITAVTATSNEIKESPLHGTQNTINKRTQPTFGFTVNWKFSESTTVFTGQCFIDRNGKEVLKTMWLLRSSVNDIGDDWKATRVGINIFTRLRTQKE
Procedure: as §1
(§2) Absorption at 500 nm of 300 μM HABA solution in phosphate buffered saline without calcium or magnesium (986 μL, Lonza) was measured using UV-VIS spectrometer. 16 μL, of the conjugates solution (1.25 μM of avidin in deionized water) was added to the HABA solution and incubated at room temperature for 1 minute, and then absorption at 500 nm was measured. Change in absorbance at 500 nm was used to determine bound HABA to the conjugate.

[3] = molecular target: Avidin from Gallus gallus egg white, Avi-pCBMA conjugate by solution synthesis (Gallus gallus, UniProt P02701); test: Binding affinity of HABA to Avi-pCBMA conjugate, solution; details: 300 μM HABA, 1 minute, room temperature, [Avi]0 = 2 μM, ε500 = 34000 M^−1
Sequence of Avidin from Gallus gallus egg white, Avi-pCBMA conjugate by solution synthesis (P02701 25-152): as above
Procedure: as §1, §2

[4] = system: C[C@H](NC(=O)CCC(=O)O)C(=O)N[C@@H](C)C(=O)N1CCC[C@H]1C(=O)N[C@@H](Cc1ccccc1)C(=O)Nc1ccc([N+](=O)[O-])cc1; test: purified protein, by the assay type; details: other: native CT, pH 8, 25° C.
Procedure: Suc-AAPF-pNA (0-125 μL of 9.60 mM in DMSO) was mixed with sodium phosphate buffer (865-950 μL of 100 mM buffer, pH 8). Native CT or conjugate solutions (10 μL, 3.9 μM of CT) was added to the substrate solution. The initial substrate hydrolysis rate was monitored by recording the increase in absorbance at 412 nm using a UV-VIS absorbance spectrometer with a temperature-controlled cell holder at 25° C. Michaelis-Menten parameters were determined by nonlinear curve fitting of initial rate versus substrate concentration plots using Enzfitter software.

Molecule: CC(=O)SCC[N+](C)(C)C.[I-] [acetylthiocholine iodide, Acetylthiocholine iodide]
- Ratio of enzymatic efficiency (PARIS:solution) [1]: 1.09 ± 0.08

Molecule: O=C(O)c1ccccc1/N=N/c1ccc(O)cc1 [HABA, 4′-hydroxyazobenzene-2-carboxylic acid]
- Ratio of binding affinity of HABA (PARIS:solution) ([2]; Avi-pCBMA, PARIS:solution): 1.01 ± 0.14
- Bound HABA ([2]; PARIS Avi-pCBMA, 1 minute, room temperature, [Avi]0 = 2 μM, ε500 = 34000 M^−1): 0.93 ± 0.13 µM
- Bound HABA [3]: 0.92 ± 0.04 µM

Molecule: α-Chymotrypsin (CT) from bovine pancreas (type II), native (Bos taurus)
- Km [4]: 80.3 ± 13.1 µM
- kcat [4]: 34.6 ± 1.4 s⁻¹
- kcat/Km [4]: 431000 ± 72000 M⁻¹ s⁻¹
